AC40 data for 65 compounds are collected here from PubChem BioAssay AID687000 (Broad Institute, 2013).

Several values for one entry are separate records, joined by “and”; a condition that tells them apart may be missing. Equal entries are not always repeated. Activity calls are given as the source filed them.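 The calls were made as follows: active = fitted dose curve reaches 40% lysis signal rise at or below the highest valid concentration tested for that sample; inconclusive = flat fit between 30% and 70%, or poor curve fit; inactive = signal falls, stays flat within 30%, or no crossing.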

The subject of this test is C. neoformans lysis, adenylate kinase release luminescence, 4 h. Description: inducers of Cryptococcus neoformans cell lysis, dose response, AK release luminescence, cherry-picks (AID 687000).
`COC(=O)C1=C(C)N(CC(C)C)C(=S)NC1c1ccc(-c2ccccc2)cc1` (stereo not given): the AC40 is > 15 µM (inactive) and 1.4 µM. With `Cc1cc(C)c(NC(=O)C2CCCN2C(=O)NC2CCCCC2)c(C)c1` (stereo not given), the AC40 is 10.4 µM.

Take `O=C(NC(=S)NCC1COc2ccccc2O1)c1ccc(Cl)cc1` (stereo not given): the AC40 is 3.44 µM. With `CCC(=O)N(C)C[C@@H]1Oc2cc(C#CC(C)(C)O)ccc2S(=O)(=O)N([C@H](C)CO)C[C@H]1C`, the AC40 is > 15 µM (inactive). As to `C[C@H](CO)N1C[C@H](C)[C@@H](CN(C)CC2CCOCC2)Oc2ncc(C#Cc3ccc(F)cc3)cc2C1=O`, the AC40 was > 15 µM (inactive).

`C[C@H](CO)N1C[C@H](C)[C@H](CN(C)Cc2ccccc2)OCCCC[C@H](C)Oc2ccc(NS(=O)(=O)c3cccs3)cc2C1=O`: the AC40 was > 15 µM (inactive). For the compound `C[C@@H]1CCCCO[C@@H](CN(C)C(=O)Nc2ccc3c(c2)OCO3)[C@@H](C)CN([C@H](C)CO)C(=O)c2cc(NC(=O)Nc3cccc4ccccc34)ccc2O1`, the AC40 is > 15 µM (inactive). Regarding `O=C(NCCN1CCCCC1)[C@H]1N[C@H]2c3ccc(-c4ccncc4)c(=O)n3C[C@H]2[C@@H]1CO`, the AC40 is 12.7 µM.

For `C[C@H](CO)N1C[C@H](C)[C@H](CN(C)C(=O)Nc2ccc3c(c2)OCO3)Oc2ncc(C#CC(C)(C)O)cc2C1=O`, the AC40 is > 15 µM (inactive). As for `COc1ccccc1C#Cc1ccc2c(c1)O[C@H](CN(C)C(C)=O)[C@H](C)CN([C@@H](C)CO)S2(=O)=O`, the AC40 was > 15 µM (inactive). Under `O=C(N[C@H]1CC[C@H](CCn2cc(-c3ccccn3)nn2)O[C@H]1CO)c1ccc(F)cc1` stands > 15 µM (inactive). On to `COC(=O)C1=C(C)N(C)C(=S)NC1c1ccccc1` (stereo not given), for which the AC40 was > 26 µM (inactive). On to `C[C@H]1CN([C@@H](C)CO)C(=O)c2cccc(NS(=O)(=O)c3ccc(Cl)cc3)c2O[C@@H]1CN(C)CC1CC1`, for which the AC40 was 3.75 µM. Under `COC(=O)C1=C(C)N(Cc2ccc(Cl)cc2)C(=S)NC1c1ccc(Br)cc1` (stereo not given) stands 0.781 µM; under `Cc1cc(Cl)ccc1NC(=S)NCc1ccc(F)cc1`, 2.25 µM. As for `COc1ccc(CNC(=S)NCc2ccc(OC)cc2)cc1`, the AC40 was > 15 µM (inactive).

On to `Fc1ccccc1NC(=S)NCCc1cccc(Cl)c1`, for which the AC40 is 3.27 µM. To `Cc1c(C(=O)NC(=S)Nc2ccccc2N2CCCC2)cccc1[N+](=O)[O-]` belongs > 15 µM (inactive). Under `COc1cccc(C(=O)NC(=S)Nc2ccccc2N2CCOCC2)c1` stands > 15 µM (inactive).

Regarding `CCN1C(=S)N[C@@H](c2ccccc2)C(C(=O)OC)=C1C`, the AC40 was > 15 µM (inactive). Under `COc1cccc(S(=O)(=O)Nc2ccc3c(c2)[C@H]2C[C@H](CC(=O)N(C)C)O[C@@H](CO)[C@H]2O3)c1` stands > 15 µM (inactive); under `COC(=O)C1=C(C)N(Cc2ccc(F)cc2)C(=S)NC1c1ccccc1` (stereo not given), 2.68 µM. Regarding `COc1cccc(-c2ccc3c(c2)[C@H]2[C@H](CCN2C(=O)Cc2ccncc2)[C@H](CO)N3C)c1`, the AC40 was > 15 µM (inactive).

Regarding `CC(C)NC(=O)N(C)C[C@H]1OCCCC[C@H](C)Oc2ccc(NC(=O)c3ccccc3)cc2C(=O)N([C@@H](C)CO)C[C@@H]1C`, the AC40 was > 15 µM (inactive). As to `O=C(NC(=S)Nc1ccccc1N1CCOCC1)c1cccc([N+](=O)[O-])c1`, the AC40 is 5.69 µM. On to `COc1ccc(C(=O)NC(=S)Nc2ccccc2N2CCCCC2)cc1[N+](=O)[O-]`, for which the AC40 is 3.29 µM. As for `COCCN1C(=S)N[C@@H](c2ccccc2)C(C(=O)OC)=C1C`, the AC40 is 13.5 µM. For the compound `O=C(NC(=S)Nc1cc(Cl)ccc1N1CCOCC1)c1ccccc1[N+](=O)[O-]`, the AC40 is 13.6 µM. To `COC(=O)C1=C(C)N(Cc2ccc(Cl)cc2)C(=S)NC1c1ccccc1` (stereo not given) belongs 2.53 µM; to `Cc1ccccc1NC(=S)NC(=O)CCc1ccccc1`, 4.93 µM. To `S=C(Nc1ccccc1)Nc1cc(Cl)ccc1Oc1ccccc1` belongs > 7.5 µM (inactive). As for `Cc1ccc(C)c(NC(=O)C2(C)CCCN2C(=O)C(C)C)c1` (stereo not given), the AC40 is 7.4 µM. Turning to `O=C(NC(=S)Nc1ccc(Br)cc1)C1CCC1`, the AC40 is 1.05 µM.

For the compound `CC(C)CC#Cc1cnc2c(c1)C(=O)N([C@H](C)CO)C[C@H](C)[C@@H](CN(C)Cc1cccc(F)c1)O2`, the AC40 was > 15 µM (inactive).

In the case of `COC(=O)C1=C(C)N(Cc2ccc(Cl)cc2)C(=S)NC1c1ccc(OC)cc1` (stereo not given), the AC40 was 11.8 µM. For `CC(C)NC(=O)Nc1ccc2c(c1)CC(=O)N([C@@H](C)CO)C[C@@H](C)[C@H](CN(C)C(=O)Nc1ccc3c(c1)OCO3)O2`, the AC40 is > 15 µM (inactive).

On to `C[C@@H]1CCCCO[C@@H](CN(C)C(=O)Nc2cccc3ccccc23)[C@@H](C)CN([C@H](C)CO)C(=O)c2cc(NS(=O)(=O)c3ccccc3)ccc2O1`, for which the AC40 was 14.2 µM. For `CO[C@@H]1CN(C)C(=O)c2cc(NS(=O)(=O)c3cccc(C)c3)ccc2OC[C@@H](C)NC[C@H]1C`, the AC40 is > 15 µM (inactive). As to `COc1cccc(NC(=S)N2CCC(Cc3ccccc3)CC2)c1`, the AC40 was 3.35 µM. As to `CCc1ccc(C(=O)NC(=S)NCc2cccnc2)cc1`, the AC40 was 8.42 µM. Consider `COC(=O)C1=C(C)N(CC(C)C)C(=S)NC1c1ccc(Cl)cc1` (stereo not given), for which the AC40 was 2.36 µM and 0.971 µM. To `COc1cccc(S(=O)(=O)N(C)C[C@@H]2OCc3ccccc3-c3ccccc3C(=O)N([C@@H](C)CO)C[C@@H]2C)c1` belongs > 15 µM (inactive); to `COc1cccc(NC(=S)NC(=O)Cc2ccc(Cl)cc2)c1`, 1.03 µM. For the compound `Cc1cccc(C)c1NC(=O)CN(C)C(=O)C1CCCCC1`, the AC40 is > 15 µM (inactive). With `S=C(Nc1cccc(Cl)c1)Nc1ccccc1Oc1ccccc1`, the AC40 is > 15 µM (inactive). With `CO[C@H]1CN(C)C(=O)c2cc(NC(=O)C3CC3)ccc2OC[C@@H](C)N(Cc2cncnc2)C[C@H]1C`, the AC40 is 12.9 µM. As to `COC(=O)C1=C(C)N(Cc2ccc(F)cc2)C(=S)NC1c1cccc(F)c1` (stereo not given), the AC40 is 14.2 µM and 2.63 µM. Turning to `Cc1noc(C)c1NC(=O)Nc1ccc2c(c1)C(=O)N([C@@H](C)CO)C[C@H](C)[C@H](CN(C)CC1CCCCC1)O2`, the AC40 was > 15 µM (inactive).

Consider `Cc1noc(C)c1S(=O)(=O)Nc1ccc2c(c1)CC(=O)N([C@H](C)CO)C[C@H](C)[C@@H](CN(C)S(=O)(=O)c1cn(C)cn1)O2`, for which the AC40 was > 15 µM (inactive).

As to `C[C@H]1CN([C@@H](C)CO)C(=O)c2cc(NC(=O)Nc3ccc(F)cc3)ccc2O[C@@H]1CN(C)S(C)(=O)=O`, the AC40 is > 15 µM (inactive).

For the compound `O=C(Cc1ccccc1)N[C@H]1C=C[C@@H](CC(=O)N2CCOCC2)O[C@@H]1CO`, the AC40 is 4.91 µM.

For the compound `O=C(CN(c1ccc(F)cc1)S(=O)(=O)c1ccccc1)N1CCOCC1`, the AC40 was > 15 µM (inactive). Regarding `C[C@H](CO)N1C[C@H](C)[C@H](CN(C)C(=O)Nc2cccc3ccccc23)Oc2ccc(NC(=O)Cc3ccccc3)cc2CC1=O`, the AC40 is > 15 µM (inactive).

With `NC(=S)N/N=C/c1ccc(-c2cc(Cl)ccc2Cl)o1`, the AC40 is 0.644 µM. As to `O=C(C1CCOCC1)N1CC[C@@H]2[C@@H](CO)Nc3ccc(Br)cc3[C@@H]21`, the AC40 was > 15 µM (inactive). With `CCCOc1ccc(CNC(=S)NCc2ccc(OC(C)C)cc2)cc1`, the AC40 was 14.3 µM. In the case of `COC(=O)C1=C(C)N(Cc2ccc(F)cc2)C(=S)NC1c1ccc(Cl)cc1` (stereo not given), the AC40 is > 15 µM (inactive).

For `Cc1ccc(S(=O)(=O)N[C@H]2C=C[C@@H](CC(=O)N3CCC(Cc4ccccc4)CC3)O[C@H]2CO)cc1`, the AC40 is > 15 µM (inactive). Turning to `N#Cc1ccc(C23CC4(C2)[C@H](CN(Cc2ccc(C(F)(F)F)cc2)[C@@H]4c2ccccc2)C3c2ccc(C(F)(F)F)cc2)cc1` (stereo not given in full), the AC40 was > 15 µM (inactive). In the case of `COC(=O)C1=C(C)N(CC(C)C)C(=S)NC1c1ccc(F)cc1` (stereo not given), the AC40 was 3.52 µM.

For the compound `COC(=O)C1=C(C)N(Cc2ccc(F)cc2)C(=S)NC1c1cccc(Cl)c1` (stereo not given), the AC40 was 2.41 µM and 3.17 µM. With `C[C@H]1CN([C@@H](C)CO)S(=O)(=O)c2ccc(Br)cc2O[C@@H]1CN(C)C(=O)CCN1CCCCC1`, the AC40 is > 15 µM (inactive). Consider `CC(C)CC#Cc1cnc2c(c1)C(=O)N([C@H](C)CO)C[C@H](C)[C@H](CN(C)C(=O)c1cccnc1)O2`, for which the AC40 is > 15 µM (inactive).

`Cc1cccc(-c2ccc([C@H]3[C@H](CO)N4CCCCN(C(=O)c5ccc6c(c5)OCO6)C[C@@H]34)cc2)c1`: the AC40 was > 15 µM (inactive).

As for `Cc1noc(C)c1S(=O)(=O)Nc1ccc2c(c1)CC(=O)N([C@H](C)CO)C[C@H](C)[C@H](CN(C)S(=O)(=O)c1cccs1)O2`, the AC40 is > 15 µM (inactive).
